The values that follow come from ChEMBL document CHEMBL1146262, “Novel thiazolones as HCV NS5B polymerase allosteric inhibitors: Further designs, SAR, and X-ray complex structure” (Bioorg Med Chem Lett, 2007).

Bounds are passed on as bounds.

A short description of the assay: Inhibition of HCV NS5B polymerase by RdRp-catalyzed elongation assay. Set-up: species or system Hepacivirus hominis.
`CCc1ccc(/C=C2\SC(N[C@H](CC(=O)O)c3cccnc3)=NC2=O)o1` (stereo in doubt) returned an IC50 greater than 100 µM.
With `CCc1ccc(/C=C2\SC(NC(Cc3ccccc3)C(=O)O)=NC2=O)o1` (stereo not drawn) the figure was 68 µM.
For the molecule `CCc1ccc(/C=C2\SC(NC(C(=O)NO)c3ccc(Cl)cc3Cl)=NC2=O)o1` (stereo not drawn), inhibition was half-maximal at 5.5 µM (IC50).
Take `CCc1ccc(/C=C2\SC(N[C@H](CC(=O)O)c3ccc(C)cc3)=NC2=O)o1` (stereo in doubt): half-maximal inhibition (IC50) required 27 µM.
The molecule `CCc1ccc(/C=C2\SC(N[C@H](C(=O)O)c3ccc(O)cc3)=NC2=O)o1` (stereo in doubt) yielded an IC50 of 43 µM.
For the molecule `CCc1ccc(/C=C2\SC(NC(C(=O)O)c3ccc(F)c(Cl)c3)=NC2=O)o1` (stereo not drawn), the IC50 turned out to be 24 µM.
`CCc1ccc(/C=C2\SC(NC(C(=O)O)c3ccc4ccccc4c3)=NC2=O)o1` (stereo not drawn) returned a half-maximal inhibitory concentration (IC50) of 14 µM.
Molecule `CCc1ccc(/C=C2\SC(NC(c3ccc(C)cc3)c3nn[nH]n3)=NC2=O)o1` (stereo not drawn) displayed an IC50 of 14 µM.
`CCc1ccc(/C=C2\SC(NC(C(=O)O)c3ccc(C)cc3)=NC2=O)o1` (stereo not drawn) had an IC50 of 11 µM.
For the molecule `CCc1ccc(/C=C2\SC(N[C@H](Cc3nn[nH]n3)c3ccccc3)=NC2=O)o1` (stereo in doubt), the IC50 worked out at 24 µM.
Turning to `CCc1ccc(/C=C2\SC(NC(C(=O)O)c3ccc(C)cc3C)=NC2=O)o1` (stereo not drawn), the IC50 was found to be 12 µM.
Molecule `CCc1ccc(/C=C2\SC(N[C@H](CC(=O)O)c3ccc(C#N)cc3)=NC2=O)o1` (stereo in doubt) showed an IC50 greater than 100 µM.
The molecule `CCc1ccc(/C=C2\SC(N[C@@H](CC(=O)O)c3ccc(F)cc3)=NC2=O)o1` (stereo in doubt) registered an IC50 of 13 µM.
In turn, `CCc1ccc(/C=C2\SC(N[C@@H](C(=O)O)c3ccc(F)cc3)=NC2=O)o1` (stereo in doubt) [VALEANT] had a 50% inhibitory concentration (IC50) of 50 µM.
The molecule `CCc1ccc(/C=C2\SC(N[C@H](C(N)=O)c3ccc(F)cc3)=NC2=O)o1` (stereo in doubt) gave an IC50 of 16 µM.
With `CCc1ccc(/C=C2\SC(NC(C(=O)O)c3ccc(Br)cc3)=NC2=O)o1` (stereo not drawn) the figure was 6 µM.
In turn, `CCc1ccc(/C=C2\SC(NC(C(=O)O)c3ccc(Cl)cc3Cl)=NC2=O)o1` (stereo not drawn) came in with an IC50 of 7.6 µM.
As for `CCc1ccc(/C=C2\SC(N[C@H](CC(=O)O)c3ccccc3)=NC2=O)o1` (stereo in doubt), the IC50 is 59 µM.
Take `CCc1ccc(/C=C2\SC(N[C@H](CC(=O)O)c3ccc(Br)cc3)=NC2=O)o1` (stereo in doubt): it took 16.5 µM to reach half-maximal inhibition (IC50).
On to `CCc1ccc(/C=C2\SC(N[C@H](CC(=O)O)c3ccc(Cl)cc3Cl)=NC2=O)o1` (stereo in doubt), for which 8.5 µM corresponded to half-maximal inhibition (IC50).
As to `CCc1ccc(/C=C2\SC(NC(c3ccccc3)c3nn[nH]n3)=NC2=O)o1` (stereo not drawn), the IC50 was determined as 19 µM.
Molecule `CCc1ccc(/C=C2\SC(N[C@H](C(=O)O)c3ccccc3)=NC2=O)o1` (stereo in doubt) showed an IC50 of 55 µM.
Molecule `CCc1ccc(/C=C2\SC(N[C@H](C(=O)O)c3ccc(F)cc3)=NC2=O)o1` (stereo in doubt) displayed an IC50 of 3 µM.
With `CCc1ccc(/C=C2\SC(NC(C(=O)O)C3(C)CCCC3)=NC2=O)o1` (stereo not drawn) the figure was greater than 100 µM; with `CCc1ccc(/C=C2\SC(N[C@H](CC(=O)O)c3ccc(F)cc3)=NC2=O)o1` (stereo in doubt), 44 µM.
Molecule `CCc1ccc(/C=C2\SC(N[C@@H](CC(=O)O)c3ccc(Cl)cc3Cl)=NC2=O)o1` (stereo in doubt) yielded an IC50 of 9 µM.
`CCc1ccc(/C=C2\SC(NC(C(=O)O)c3ccc(C(F)(F)F)cc3)=NC2=O)o1` (stereo not drawn): the IC50 stood at 21 µM.
With `CCc1ccc(/C=C2\SC(N[C@H](C(=O)O)C3CCCCC3)=NC2=O)o1` (stereo in doubt) the figure was 25 µM.

What is called IC50 is the concentration that gives 50% inhibition. Low readings indicate inhibition by little substance, high ones a need for much substance.
